Source: ChEMBL document CHEMBL1795250, “Synthesis and base-pairing properties of C-nucleotides having 1-substituted 1H-1,2,3-triazoles” (Bioorg Med Chem Lett, 2009)

Key:
Assay type in all cases: nucleic-acid assay
Nucleic Acid [1] = assay: Stabilization of 5'-AGAGAGAAAGAAAAA-3' ssDNA sequence assessed as melting temperature at pH7 using 100 mM NaCl
Nucleic Acid [2] = assay: Stabilization of 5'-AGAGAGATAGAAAAA-3' ssDNA sequence assessed as melting temperature at pH7 using 100 mM NaCl
Nucleic Acid [3] = assay: Stabilization of 5'-AGAGAGAGAGAAAAA-3' ssDNA sequence assessed as melting temperature at pH7 using 100 mM NaCl
Nucleic Acid [4] = assay: Stabilization of 5'-AGAGAGACAGAAAAA-3' ssDNA sequence assessed as melting temperature at pH7 using 100 mM NaCl

For `Cc1cn([C@H]2C[C@H](OP(=O)(O)OC[C@H]3O[C@@H](n4cc(C)c(=O)[nH]c4=O)C[C@@H]3OP(=O)(O)OC[C@H]3O[C@@H](n4cc(C)c(N)nc4=O)C[C@@H]3OP(=O)(O)OC[C@H]3O[C@@H](n4cc(C)c(=O)[nH]c4=O)C[C@@H]3OP(=O)(O)OC[C@H]3O[C@@H](n4cc(C)c(N)nc4=O)C[C@@H]3OP(=O)(O)OC[C@H]3O[C@@H](n4cc(C)c(=O)[nH]c4=O)C[C@@H]3O)[C@@H](COP(=O)(O)O[C@H]3C[C@H](n4cc(C)c(=O)[nH]c4=O)O[C@@H]3COP(=O)(O)O[C@H]3C[C@H](c4cn(Cc5ccccc5)nn4)O[C@@H]3COP(=O)(O)O[C@H]3C[C@H](n4cc(C)c(=O)[nH]c4=O)O[C@@H]3COP(=O)(O)O[C@H]3C[C@H](n4cc(C)c(N)nc4=O)O[C@@H]3COP(=O)(O)O[C@H]3C[C@H](n4cc(C)c(=O)[nH]c4=O)O[C@@H]3COP(=O)(O)O[C@H]3C[C@H](n4cc(C)c(=O)[nH]c4=O)O[C@@H]3COP(=O)(O)O[C@H]3C[C@H](n4cc(C)c(=O)[nH]c4=O)O[C@@H]3COP(=O)(O)O[C@H]3C[C@H](n4cc(C)c(=O)[nH]c4=O)O[C@@H]3COP(=O)(O)O[C@H]3C[C@H](n4cc(C)c(=O)[nH]c4=O)O[C@@H]3CO)O2)c(=O)nc1N`, the Tm (Nucleic Acid [1]) was 32 °C, the Tm (Nucleic Acid [2]) was 33 °C and the Tm (Nucleic Acid [3]) was 38 °C. The Tm (Nucleic Acid [4]) was 34 °C.

`Cc1cn([C@H]2C[C@H](OP(=O)(O)OC[C@H]3O[C@@H](n4cc(C)c(=O)[nH]c4=O)C[C@@H]3OP(=O)(O)OC[C@H]3O[C@@H](n4cc(C)c(N)nc4=O)C[C@@H]3OP(=O)(O)OC[C@H]3O[C@@H](n4cc(C)c(=O)[nH]c4=O)C[C@@H]3OP(=O)(O)OC[C@H]3O[C@@H](n4cc(C)c(N)nc4=O)C[C@@H]3OP(=O)(O)OC[C@H]3O[C@@H](n4cc(C)c(=O)[nH]c4=O)C[C@@H]3O)[C@@H](COP(=O)(O)O[C@H]3C[C@H](n4cc(C)c(=O)[nH]c4=O)O[C@@H]3COP(=O)(O)O[C@H]3C[C@H](c4cn(C56CC7CC(CC(C7)C5)C6)nn4)O[C@@H]3COP(=O)(O)O[C@H]3C[C@H](n4cc(C)c(=O)[nH]c4=O)O[C@@H]3COP(=O)(O)O[C@H]3C[C@H](n4cc(C)c(N)nc4=O)O[C@@H]3COP(=O)(O)O[C@H]3C[C@H](n4cc(C)c(=O)[nH]c4=O)O[C@@H]3COP(=O)(O)O[C@H]3C[C@H](n4cc(C)c(=O)[nH]c4=O)O[C@@H]3COP(=O)(O)O[C@H]3C[C@H](n4cc(C)c(=O)[nH]c4=O)O[C@@H]3COP(=O)(O)O[C@H]3C[C@H](n4cc(C)c(=O)[nH]c4=O)O[C@@H]3COP(=O)(O)O[C@H]3C[C@H](n4cc(C)c(=O)[nH]c4=O)O[C@@H]3CO)O2)c(=O)nc1N` showed a Tm (Nucleic Acid [1]) of 30 °C, a Tm (Nucleic Acid [2]) of 34 °C and a Tm (Nucleic Acid [3]) of 37 °C. For the same compound, the Tm (Nucleic Acid [4]) was 34 °C.

In the case of `Cc1cn([C@H]2C[C@H](OP(=O)(O)OC[C@H]3O[C@@H](n4cc(C)c(=O)[nH]c4=O)C[C@@H]3OP(=O)(O)OC[C@H]3O[C@@H](n4cc(C)c(N)nc4=O)C[C@@H]3OP(=O)(O)OC[C@H]3O[C@@H](n4cc(C)c(=O)[nH]c4=O)C[C@@H]3OP(=O)(O)OC[C@H]3O[C@@H](n4cc(C)c(N)nc4=O)C[C@@H]3OP(=O)(O)OC[C@H]3O[C@@H](n4cc(C)c(=O)[nH]c4=O)C[C@@H]3O)[C@@H](COP(=O)(O)O[C@H]3C[C@H](n4cc(C)c(=O)[nH]c4=O)O[C@@H]3COP(=O)(O)O[C@H]3C[C@H](c4cn(CSc5ccccc5)nn4)O[C@@H]3COP(=O)(O)O[C@H]3C[C@H](n4cc(C)c(=O)[nH]c4=O)O[C@@H]3COP(=O)(O)O[C@H]3C[C@H](n4cc(C)c(N)nc4=O)O[C@@H]3COP(=O)(O)O[C@H]3C[C@H](n4cc(C)c(=O)[nH]c4=O)O[C@@H]3COP(=O)(O)O[C@H]3C[C@H](n4cc(C)c(=O)[nH]c4=O)O[C@@H]3COP(=O)(O)O[C@H]3C[C@H](n4cc(C)c(=O)[nH]c4=O)O[C@@H]3COP(=O)(O)O[C@H]3C[C@H](n4cc(C)c(=O)[nH]c4=O)O[C@@H]3COP(=O)(O)O[C@H]3C[C@H](n4cc(C)c(=O)[nH]c4=O)O[C@@H]3CO)O2)c(=O)nc1N`, the Tm (Nucleic Acid [1]) is reported as 37 °C, the Tm (Nucleic Acid [2]) is reported as 40 °C and the Tm (Nucleic Acid [3]) is reported as 40 °C. For the same compound, the Tm (Nucleic Acid [4]) was 38 °C.

With `Cc1cn([C@H]2C[C@H](OP(=O)(O)OC[C@H]3O[C@@H](n4cc(C)c(=O)[nH]c4=O)C[C@@H]3OP(=O)(O)OC[C@H]3O[C@@H](n4cc(C)c(N)nc4=O)C[C@@H]3OP(=O)(O)OC[C@H]3O[C@@H](n4cc(C)c(=O)[nH]c4=O)C[C@@H]3OP(=O)(O)OC[C@H]3O[C@@H](n4cc(C)c(N)nc4=O)C[C@@H]3OP(=O)(O)OC[C@H]3O[C@@H](n4cc(C)c(=O)[nH]c4=O)C[C@@H]3O)[C@@H](COP(=O)(O)O[C@H]3C[C@H](n4cc(C)c(=O)[nH]c4=O)O[C@@H]3COP(=O)(O)O[C@H]3C[C@H](c4cn(-c5ccc(C(=O)O)cc5)nn4)O[C@@H]3COP(=O)(O)O[C@H]3C[C@H](n4cc(C)c(=O)[nH]c4=O)O[C@@H]3COP(=O)(O)O[C@H]3C[C@H](n4cc(C)c(N)nc4=O)O[C@@H]3COP(=O)(O)O[C@H]3C[C@H](n4cc(C)c(=O)[nH]c4=O)O[C@@H]3COP(=O)(O)O[C@H]3C[C@H](n4cc(C)c(=O)[nH]c4=O)O[C@@H]3COP(=O)(O)O[C@H]3C[C@H](n4cc(C)c(=O)[nH]c4=O)O[C@@H]3COP(=O)(O)O[C@H]3C[C@H](n4cc(C)c(=O)[nH]c4=O)O[C@@H]3COP(=O)(O)O[C@H]3C[C@H](n4cc(C)c(=O)[nH]c4=O)O[C@@H]3CO)O2)c(=O)nc1N` the Tm (Nucleic Acid [1]) was 33 °C, the Tm (Nucleic Acid [2]) was 33 °C and the Tm (Nucleic Acid [3]) was 38 °C. The Tm (Nucleic Acid [4]) was 33 °C.
